Reference: US20030130698A1, “Method for screening therapeutic agents for modulation of ejaculatory response” (priority 2002, published 2003)

Key:
male mice [1] = assay: Electroejaculation test after oral administration of diarylmethylpiperazine compounds (35 Hz, 3 to 8 volts); format: in vivo, mouse; conditions: for Effective Dose: oral administration, stimulation about 20 minutes after dosing, 3 to 8 volts in 0.5 volt increments; for Ejaculation Inhibition %: relative to control group, at the effective dose of the same line, oral, about 20 minutes after dosing, 3 to 8 volts
Protocol: (§1) Male, CD-1 mice (20-30 g) were housed in groups of ten (10) in Plexiglas® chambers with food and water available before any procedure. Animals were maintained on a 12 hour light/dark cycle in a temperature-controlled animal colony. Studies were carried out in accordance with the Guide for the Care and Use of Laboratory animals as adopted and promulgated by the National Institutes of Health.
(§2) Specifically, the bipolar electrode probe is an approximately 5 cm long tube having an outer diameter of approximately 0.2388 cm with an inner diameter of approximately 0.0787 cm and a wall thickness of […].
A testing mouse was restrained in a cone bag with rear legs extending from the bag. Excess fecal matter was removed from the rectum and a lubricated bipolar electrode was inserted approximately […] into the rectum. An oscillating current of 40 Hz was utilized for electrical stimulation starting at 3 volts with a gradual increase to 8 volts by increments of 0.5 volts, as shown in Table 1. The stimulation regime included 4 stimulating events for each voltage lasting 2 seconds with a rest period of 2 seconds between stimulating events. A white coagulum ejaculate from the penis indicated a successful ejaculation. If ejaculation occurred before reaching the 8 volt terminal voltage, the testing was stopped.
Further testing was conducted on a multiple diarylmethylpiperazine compounds according to the testing procedure setforth above wherein the stimulating protocol comprised multiple operating cycles of alternating stimulation periods and rest periods during which the operating voltage of each operating cycle increased in comparison with that of the immediately preceding operating cycle. Electroejaculation stimulation was conducted at 35 Hz oscillating frequency, starting at 3 volts with a gradual increase to 8 volts by increments of 0.5 volts and occurred about 20 minutes after oral administration. The results, showing ejaculation inhibition relative to that of the control group, are compiled in Table 2.

[2] = tested on: mouse vas deferens smooth muscle; conditions: in vitro; cited from earlier work
male mice [3] = assay: Electroejaculation test after subcutaneous SNC-80 (40 Hz, 3 to 8 volts); format: in vivo, mouse; conditions: terminal voltage 8 volts, FIG. 3
Protocol: as §1, §2
SNC-80 was dissolved in 5% dextrose injection solution. Equal molar of HCL was added when the manufacturer packaged the compound in a base form. The placebo was prepared in a similar manner without the test drug 10 minutes after the injection, the test mouse was subjected to electrostimulation. Ten mice were tested for each dose level, the order of each mouse receiving different doses was blinded and in a random manner.
A testing mouse was restrained in a cone bag with rear legs extending from the bag. Excess fecal matter was removed from the rectum and a lubricated bipolar electrode was inserted approximately 2.5 into the rectum. […]

delta opioid receptor = delta opioid receptor (Homo sapiens, UniProt P41143); conditions: delta opioid receptor agonist versus mu opioid receptors; cited from earlier work
Sequence of delta opioid receptor (P41143 whole entry): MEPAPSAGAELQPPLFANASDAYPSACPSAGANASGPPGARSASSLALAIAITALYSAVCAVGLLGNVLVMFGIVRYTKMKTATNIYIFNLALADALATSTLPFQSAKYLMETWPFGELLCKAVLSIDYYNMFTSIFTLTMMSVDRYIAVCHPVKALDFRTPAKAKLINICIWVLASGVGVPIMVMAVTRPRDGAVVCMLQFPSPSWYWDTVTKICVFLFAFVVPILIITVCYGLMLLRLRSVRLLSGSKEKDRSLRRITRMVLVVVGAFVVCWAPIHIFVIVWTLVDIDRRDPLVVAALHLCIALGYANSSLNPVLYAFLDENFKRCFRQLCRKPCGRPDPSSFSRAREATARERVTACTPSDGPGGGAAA

SMILES | Effective Dose (male mice [1]) [mg/kg] | Ejaculation Inhibition % (male mice [1]) [%] | contraction of mouse vas deferens smooth muscle [2] | inhibitory effect on ejaculation at reduced dose (male mice [3]; 0.1 mg/kg subcutaneous) | occurrence of ejaculation compared to control group (male mice [3]; 1 mg/kg subcutaneous) | selectivity over mu opioid receptors (delta opioid receptor) [fold]
CCN(CC)C(=O)c1ccc([C@H](c2cccc(O)c2)N2C[C@@H](C)N(Cc3cccc(F)c3)C[C@@H]2C)cc1 [4-((alpha-R)-alpha-((2S,5R)-2,5-Dimethyl-4-(3-fluorobenzyl)-1-piperazinyl)-3-hydroxybenzyl)-N,N-diethylbenzamide] | 3 | 60 | – | – | – | –
CCN(CC)C(=O)c1ccc([C@H](c2cccc(OCC(=O)O)c2)N2C[C@@H](C)N(Cc3ccccc3)C[C@@H]2C)cc1 [3-((alpha-R)-alpha-((2S,5R)-4-Benzyl-2,5-dimethyl-1-piperazinyl)-4-(diethylaminocarbonyl)benzyl)phenoxyacetic acid] | 3 | 66 | – | – | – | –
CCN(CC)C(=O)c1ccc([C@H](c2cccc(OC)c2)N2C[C@@H](C)N(Cc3ccccc3F)C[C@@H]2C)cc1 [4-((alpha-R)-alpha-((2S,5R)-2,5-Dimethyl-4-(2-fluorobenzyl)-1-piperazinyl)-3-methoxybenzyl)-N,N-diethylbenzamide] | 10 | 50 | – | – | – | –
C=CCN1C[C@@H](C)N([C@H](c2ccc(S(=O)(=O)N(C)C)cc2)c2cccc(O)c2)C[C@@H]1C [4-[(R)-((2R,5S)-4-Allyl-2,5-diimethylpiperazin-1-yl)(3-hydroxyphenyl)methyl]-N,N-dimethylbenzenesulfonamide] | 0.3 | 50 | – | – | – | –
CCN(CC)C(=O)c1ccc([C@H](c2cccc(OC)c2)N2C[C@@H](C)N(Cc3ccc(F)cc3)C[C@@H]2C)cc1 [4-((alpha-R)-alpha-((2S,5R)-2,5-Dimethyl-4-(4-fluorobenzyl)-1-piperazinyl)-3-methoxybenzyl)-N,N-diethylbenzamide] | 3 | 38 | – | – | – | –
C=CCN1C[C@H](C)N([C@H](c2ccc(C(=O)N(CC)CC)cc2)c2cccc(OCC(=O)O)c2)C[C@H]1C [3-((alpha-R)-alpha-((2S,5R)-4-Allyl-2,5-dimethyl-1-piperazinyl)-4-(diethylamino-carbonyl)benzyl)phenoxyacetic acid] | 0.01 | 45 | – | – | – | –
CCN(CC)C(=O)c1ccc([C@H](c2cccc(OC)c2)N2C[C@@H](C)N(Cc3ccccc3)C[C@@H]2C)cc1 [4-(alpha-R)-alpha-((2S,5R)-4-Benzyl-2,5-dimethyl-1 piperazinyl)-3-methoxybenzyl)-N,N-diethylbenzamide] | 3 | 33 | – | – | – | –
CCN(CC)C(=O)c1ccc([C@H](c2ccccc2)N2C[C@@H](C)N(Cc3ccc(O)cc3)C[C@@H]2C)cc1 [4-((alpha-S)-alpha-((2S,5R)-2,5-Dimethyl-4-(4-hydroxybenzyl)-1-piperazinyl)-benzyl)-N,N-diethylbenzamide] | 3 | 50 | – | – | – | –
CCN(CC)C(=O)c1ccc([C@@H](c2ccccc2)N2C[C@H](C)N(Cc3cccc(F)c3)C[C@H]2C)cc1 [4-((alpha-R)-alpha-((2R,5 S)-2,5-Dimethyl-4-(3-fluorobenzyl)-1-piperazinyl)benzyl)-N,N-diethylbenzamide] | 0.4 | 75 | – | – | – | –
C=CCN1C[C@H](C)N([C@H](c2ccc(C(=O)N(CC)CC)cc2)c2cccc(OC)c2)C[C@H]1C [SNC-80, (+)-4-[(αR)-α-((2S,5R)-4-Allyl-2,5-dimethyl-1-piperazinyl)-3-methoxybenzyl]-N,N-diethyl benzamide] | – | – | block the contraction | inhibitory effect diminished | significantly reduced the occurrence of ejaculation | 2000
CCN(CC)C(=O)c1ccc([C@H](c2cccc(O)c2)N2C[C@@H](C)N(CC3CC3)C[C@@H]2C)cc1 [4-(alpha-R)-alpha-((2S,5R)-4-(Cyclopropylmethyl)-2,5-dimethyl-1-piperazinyl)-3-hydroxybenzyl)-N,N-diethylbenzamide] | 0.3 | 60 | – | – | – | –
